From US10428013B2, “Amide compound, preparation method and uses thereof” (Shanghai Institute of Phamaceutical Industry, priority 2011, dated 2019)

What was measured:
[1] = tested on: Hyperlipemia Model of SD Rat; test: Screening in the hyperlipemia model of SD rat (fat emulsion by gavage; serum lipids); assay type: in vivo; settings: hyperlipemia SD rats, dosed 21 days, X ± SD
Description: Materials and Methods for Screening with the Compounds Prepared in Experiment 1 to 21 in the Hyperlipemia Model of SD Rat
SD rats, male, 150-180 g, supplied by Shanghai Slaccas Laboratory Animal Company Limited.
Preparation of fat emulsion: 500 g lard oil was weighed and placed into a vessel, heated for melting, and upon heating up to the temperature of 100° C., 200 g cholesterol was added and fully dissolved, then 20 g propylthiouracil was added. After full stirring and dissolving, 500 ml Tween 80 was added to give an oil phase. Meanwhile, 600 ml distilled water and 400 ml 1,2-propylene glycol were heated to 60° C. in water bath, and then 40 g sodium deoxycholate was added with stirring, until full dissolution, to give an aqueous phase. The aqueous phase was added into the oil phase and fully and uniformly mixed, to prepare the fat emulsion.
Formulation of the solution for the compounds: an appropriate amount of compounds was triturated with appropriate amount of Tween 80 for homogeneous dispersion, and then sufficient CMC-Na solution was added and fully triturated, suspended to give the solution for the compounds.
The animals were fed for acclimation for 3 days, with 8 animals as blank control (Control) according to weight, and the rest was subject to intragastric administration of fat emulsion at 1 ml/100 g weight at A.M. 9:00-11:00 daily for continuous 2 weeks; the animals were fasted for 12 hours, and had 1 ml blood sampled at orbital cavity, which was measured with the Hitachi Automatic Biochemical Analyzer 7080 for serum cholesterol (CHO), triglyceride (TO), low-density lipoprotein (LDL-C) and high-density lipoprotein (HDL-C), with the animals having CHO of 4-7 mmol/L for experiment.
The animals dosed with fat emulsion for 2 weeks were divided into model group (Model), simvastatin group (Sim, 10 mg/kg) and compound group (40 mg/kg) according to weight, and continued to receive intragastric administration with fat emulsion; at the same time, the dosed group was administered with respective amount of drug, and the model group was administered with equal volume of solvent. Fat emulsion was dosed by gavage at A.M., and drug was dosed at P.M. The animals were weighed at Monday, and were observed. The animals were dosed for continuous 21 days, and fasted for 12 hours, with 1 ml blood sampling at orbital cavity. The liver was exposed and observed for pathologic condition; after slicing and weighing, it was fixed into the 4% formaldehyde solution for pathologic examination.
The Hitachi Automatic Biochemical Analyzer 7080 was used to measure serum cholesterol (CHO), triglyceride (TG), low-density lipoprotein (LDL-C) and high-density lipoprotein (HDL-C).
Laboratory data were expressed as X±SD (Standard Deviation), and comparison between groups was carried out by t-testing.

[2] = tested on: Cholelithiasis Model of Golden Hamster; test: Screening in the cholelithiasis model of golden hamster (biochemical measurement of bile); assay type: in vivo, golden hamsters; settings: dosed 45 days, X ± SD
Description: Screening with the Compounds Prepared in Experiment 1 to 21 in the Cholelithiasis Model of Golden Hamster
68 male golden hamsters, 50-60 g, supplied by Shanghai Slaccas Laboratory Animal Company Limited.
The animals were fed for acclimation for 3 days, with 8 animals as blank control (Control) according to weight. The control was dosed with normal rat feedstuff, and the rest was dosed with feedstuff leading to cholelithiasis (sucrose 32.1%, cheese 64.2%, cholesterol 0.2%, salt 3%, vitamin B1 […], concentrated fish liver oil 0.4%). The animals were fed for acclimation for another 7 days, and divided into model group (Model), simvastatin group (Sim, 10 mg/kg), Ursodesoxycholic acid group (UDCA, 40 mg/kg), and compound group, n=6/group.
[…] 2:00-3:00 daily. The animals were weighed at Monday, and observed for hair color, stool, and variation of activation level.
The animals were dosed for continuous 45 days and then fasted for 12 hours; were anesthetized with 30 mg/kg sodium secobarbital via intraperitoneal injection; had 1 ml blood sampled via abdominal aorta; had gallbladder exposed, with an orifice on the gallbladder being clamped by the ophthalmological pliers and bile in the gallbladder being sucked with 1 ml syringe.
The Hitachi Automatic Biochemical Analyzer 7080 was used to measure cholesterol (CHO), total total bilirubin (TBIL), total bile acid (TBA) and total protein (TP) in bile.
Laboratory data was expressed as X±SD, and comparison of measurement data between groups was carried out by t-testing, with non-parametric testing for enumeration data.

Mice = test: Testing for acute toxicity in mice; assay type: in vivo; settings: orally by gavage, 5 g/kg, observation 14 days
Description: Testing for Acute Toxicity in Mice
The compounds was dissolved into an appropriate amount of Tween-80, and suspended and dispersed uniformly into a given amount of CMC-Na solution, which was administered orally and by gavage at a dose of 5 g/kg, with no toxicity associated with administration being observed, and no death of animals occurred during observation of continuous 14 days. From the results, the sample Compound 01, Compound 02, Compound 03, Compound 04, Compound 05, Compound 06, Compound 07, Compound 08, Compound 09, Compound 10, Compound 11, Compound 12, Compound 13, Compound 14, Compound 15, Compound 16, Compound 17, Compound 18, Compound 19, Compound 20 and Compound 21 were safe.

| Compound | CHO1 Concentration (serum cholesterol) ([1]; 40 mg/kg) [mmol/L] | HDL-C Concentration (serum high-density lipoprotein) ([1]; 40 mg/kg) [mmol/L] | LDL-C Concentration (serum low-density lipoprotein) ([1]; 40 mg/kg) [mmol/L] | TG Concentration (serum triglyceride) ([1]; 40 mg/kg) [mmol/L] | Cholesterol (CHO) in bile ([2]; 20 mg/kg) [mmol/L] | Total bile acid (TBA) in bile ([2]; 20 mg/kg) [mmol/L] | Total protein (TP) in bile ([2]; 20 mg/kg) [g/L] | Total total bilirubin (TBIL) in bile ([2]; 20 mg/kg) | Acute toxicity, overall result (Mice) | CHO1 Concentration (serum cholesterol) ([1]; 10 mg/kg) [mmol/L] | HDL-C Concentration (serum high-density lipoprotein) ([1]; 10 mg/kg) [mmol/L] | LDL-C Concentration (serum low-density lipoprotein) ([1]; 10 mg/kg) [mmol/L] | TG Concentration (serum triglyceride) ([1]; 10 mg/kg) [mmol/L] | Cholesterol (CHO) in bile ([2]; 10 mg/kg) [mmol/L] | Total bile acid (TBA) in bile ([2]; 10 mg/kg) [mmol/L] | Total protein (TP) in bile ([2]; 10 mg/kg) [g/L] | Total total bilirubin (TBIL) in bile ([2]; 10 mg/kg) [µmol/L] |
| --- | --- | --- | --- | --- | --- | --- | --- | --- | --- | --- | --- | --- | --- | --- | --- | --- | --- |
| CC(Oc1ccc(Cl)cc1)(C(=O)NCC(=O)c1ccc(O)cc1)C1CC1 (stereo not drawn) [Compound 20] | 19.88 ± 0.84 | 2.63 ± 0.57 | 18.48 ± 0.43 | 1.72 ± 0.26 | 0.92 ± 0.66 | 16.80 ± 9.62 | 32.94 ± 19.18 | 75.92 ± .072 µmol/L |  |  |  |  |  |  |  |  |  |
| Cc1ccc(C)c(OCCCC(C)(C)C(=O)NCC(=O)c2ccc(CO)cc2)c1 [Compound 21] | 14.42 ± 2.75 | 1.69 ± 0.26 | 12.15 ± 3.12 | 2.00 ± 0.52 |  |  |  |  | safe |  |  |  |  |  |  |  |  |
| CCC(C)(C)C(=O)O[C@H]1C[C@@H](C)C=C2C=C[C@H](C)[C@H](CC[C@@H]3C[C@@H](O)CC(=O)O3)[C@H]21 [Simvastatin, reference compound] |  |  |  |  |  |  |  |  |  | 12.52 ± 1.34 | 1.52 ± 0.32 | 11.92 ± 1.44 | 1.41 ± 0.16 | 1.07 ± 0.63 | 7.68 ± 3.31 | 35.52 ± 18.04 | 79.2 ± 34.2 |
